Here are results for 14 molecules from PubChem BioAssay (NCI).

Among the test systems are BT-549 breast; CAKI-1 renal; CCRF-CEM leukemia; DU-145 prostate; EKVX NSCLC; HCC-2998 colon; HS 578T breast; LOX IMVI melanoma; MALME-3M melanoma; MDA-MB-231 breast; MDA-MB-435; OVCAR-8 ovarian; PC-3 prostate; SK-MEL-2 melanoma; SK-OV-3 ovarian; SNB-75 CNS; SR leukemia; T-47D breast; UACC-257 melanoma; MDA-N.
Test in all cases: DTP human tumour cell line panel, 48 h

Where “and” joins values, the source holds several entries; their conditions need not be identical. Equal values may be shown once.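 Each compound was tested at five concentrations against cells in 96-well plates for 48 hours. Definition used: TGI = concentration required for complete inhibition of growth.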

Regarding `CN(Cc1cccc2ccccc12)Cc1cccc2ccccc12`, the TGI (as a rule, the concentration giving total growth inhibition) was > 100 µM in the test on BT-549 breast; > 100 µM in the test on CAKI-1 renal; 34 µM in the test with CCRF-CEM leukemia; > 100 µM in the test with DU-145 prostate; > 100 µM in the test with EKVX NSCLC; 57.9 µM with HCC-2998 colon. Moreover, the TGI in the test with HS 578T breast is > 100 µM; in the test with LOX IMVI melanoma, > 100 µM; in the test on MALME-3M melanoma it was 63.4 µM; in the test on MDA-MB-231 breast, 64.1 µM; with MDA-MB-435 it was > 100 µM; with OVCAR-8 ovarian, > 100 µM. Moreover, the TGI was 57.7 µM in the test with PC-3 prostate; 31 µM in the test on SK-MEL-2 melanoma; > 100 µM in the test with SK-OV-3 ovarian; > 100 µM in the test with SNB-75 CNS; 90.8 µM in the test on SR leukemia; 72.2 µM with T-47D breast. Further, in the test on UACC-257 melanoma, the TGI was > 100 µM.
Turning to `Nc1ccc(S(=O)(=O)Nc2ccc(Nc3c4ccccc4nc4ccccc34)cc2)cc1`, the TGI is 0.981 µM in the test with BT-549 breast; 0.517 µM in the test on CAKI-1 renal; > 4.64 µM in the test on CCRF-CEM leukemia; 0.0188 µM with DU-145 prostate; 14.7 µM with EKVX NSCLC; 8.2 µM with HCC-2998 colon. Besides, the TGI turned out to be 54.7 µM with HS 578T breast; 1.51 µM in the test on LOX IMVI melanoma; 10.8 µM in the test with MALME-3M melanoma; 22.1 µM in the test on MDA-MB-231 breast; 53 µM in the test on MDA-MB-435; 22.8 µM in the test with MDA-N. Besides, the total growth inhibition concentration (TGI) amounted to 10 µM in the test with OVCAR-8 ovarian; 17.4 µM in the test with PC-3 prostate; 15.9 µM in the test with SK-MEL-2 melanoma; 0.501 µM in the test with SK-OV-3 ovarian; 0.963 µM in the test with SNB-75 CNS; 0.533 µM with SR leukemia. In addition, the concentration for total growth inhibition (TGI) stood at 31.5 µM in the test on T-47D breast and 20.2 µM in the test with UACC-257 melanoma.
For the molecule `N=[N+]=CC(=O)CCC(NC(=O)C(CCC(=O)C=[N+]=N)NC(=O)CCC(N)C(=O)O)C(=O)O` (configuration not stated), the total growth inhibition concentration (TGI) in the test on CAKI-1 renal, in the test with CCRF-CEM leukemia, with EKVX NSCLC, with HCC-2998 colon, with LOX IMVI melanoma and in the test on MALME-3M melanoma was > 100 µM throughout. Besides, the TGI in the test with OVCAR-8 ovarian, in the test on SK-MEL-2 melanoma, in the test on SK-OV-3 ovarian, with SNB-75 CNS and in the test on UACC-257 melanoma was > 100 µM each time.
For the molecule `Oc1ccc(Cc2nccc3cc(O)c(O)cc23)cc1O`, the TGI in the test on BT-549 breast was > 100 µM; in the test on CAKI-1 renal it was > 100 µM; in the test with CCRF-CEM leukemia, 60.3 µM; in the test with DU-145 prostate, > 100 µM; in the test with EKVX NSCLC, > 100 µM; in the test on HS 578T breast it was > 100 µM. In addition, the TGI in the test with LOX IMVI melanoma, with MALME-3M melanoma, in the test with MDA-MB-231 breast, in the test on MDA-MB-435, in the test with MDA-N and with OVCAR-8 ovarian was > 100 µM each time. Also, the total growth inhibition concentration (TGI) in the test with PC-3 prostate is > 100 µM; in the test on SK-MEL-2 melanoma it was > 100 µM; in the test on SK-OV-3 ovarian it was > 100 µM; with SNB-75 CNS, > 100 µM; in the test with SR leukemia, 96.8 µM; in the test with T-47D breast, > 100 µM. The molecule further showed a total growth inhibition concentration (TGI) with UACC-257 melanoma of 87.6 µM.
Take `CC(C)(C)NCC(O)c1ccc(O)c(CO)n1` (configuration not stated): the concentration for total growth inhibition (TGI) with BT-549 breast, with CAKI-1 renal, in the test on DU-145 prostate, in the test with EKVX NSCLC, in the test on HCC-2998 colon and in the test on HS 578T breast was > 100 µM each time. The TGI in the test with LOX IMVI melanoma, with MDA-MB-231 breast, with MDA-MB-435, in the test with MDA-N, in the test on OVCAR-8 ovarian and in the test with PC-3 prostate was > 100 µM throughout. Also, the TGI in the test on SK-MEL-2 melanoma, in the test with SK-OV-3 ovarian, in the test on SNB-75 CNS, in the test on SR leukemia, in the test on T-47D breast and in the test with UACC-257 melanoma was > 100 µM in each case.
For `C[n+]1ccc(Nc2ccc(NC(=O)c3ccc(Nc4cc[n+](C)c5ccc([N+](=O)[O-])cc45)cc3[N+](=O)[O-])cc2)cc1`, the total growth inhibition concentration (TGI) was > 100 µM in the test on CAKI-1 renal; > 100 µM in the test on CCRF-CEM leukemia; > 92.6 µM with EKVX NSCLC; > 100 µM in the test with HCC-2998 colon; > 100 µM with LOX IMVI melanoma; 61.2 µM and 53.9 µM in the test on MALME-3M melanoma. For the same molecule, the TGI with OVCAR-8 ovarian, in the test with SK-MEL-2 melanoma, with SK-OV-3 ovarian, in the test with SNB-75 CNS, in the test with SR leukemia and with UACC-257 melanoma was > 100 µM each time.
On to `C[n+]1c2ccccc2c(NC(CS)C(=O)O)c2ccccc21` (configuration not stated), for which the concentration for total growth inhibition (TGI) was 97.2 µM in the test on CAKI-1 renal; > 100 µM with EKVX NSCLC; > 100 µM with HCC-2998 colon; > 100 µM in the test with MALME-3M melanoma; 61.2 µM in the test on OVCAR-8 ovarian; 89.7 µM in the test on SK-MEL-2 melanoma. Further, the concentration for total growth inhibition (TGI) in the test with SK-OV-3 ovarian was determined as 61 µM; in the test on SNB-75 CNS it was 73.5 µM; with SR leukemia, 39.4 µM; in the test on UACC-257 melanoma it was 92.9 µM.
Turning to `Cc1c(Cl)c(S(N)(=O)=O)cc2c1NC=NS2(=O)=O`, the concentration for total growth inhibition (TGI) in the test with BT-549 breast, with CAKI-1 renal, with CCRF-CEM leukemia, with DU-145 prostate, in the test with EKVX NSCLC and in the test on HCC-2998 colon was > 100 µM throughout. Further, the TGI in the test on HS 578T breast, in the test on LOX IMVI melanoma, in the test with MALME-3M melanoma, in the test on MDA-MB-231 breast, with MDA-MB-435 and in the test on MDA-N was > 100 µM throughout. The total growth inhibition concentration (TGI) with OVCAR-8 ovarian, in the test with PC-3 prostate, in the test with SK-OV-3 ovarian, in the test on SNB-75 CNS, with T-47D breast and in the test with UACC-257 melanoma was > 100 µM throughout.
Turning to `Cc1ccc(N=Nc2ccc(N)cc2C)c(S(N)(=O)=O)c1`, the total growth inhibition concentration (TGI) in the test with BT-549 breast, with CAKI-1 renal, with CCRF-CEM leukemia, with DU-145 prostate, in the test on EKVX NSCLC and in the test on HS 578T breast was > 100 µM throughout. For the same molecule, the total growth inhibition concentration (TGI) in the test on LOX IMVI melanoma, in the test with MALME-3M melanoma, in the test on MDA-MB-231 breast, in the test on MDA-N, with OVCAR-8 ovarian and with PC-3 prostate was > 100 µM in each case. The TGI with SK-MEL-2 melanoma, in the test with SK-OV-3 ovarian, in the test with SNB-75 CNS, in the test with SR leukemia, in the test on T-47D breast and in the test with UACC-257 melanoma was > 100 µM each time.
Regarding `Nc1c(C(=O)Nc2ccc(C3=NCCN3)cc2)cccc1C(=O)Nc1ccc(C2=NCCN2)cc1`, the total growth inhibition concentration (TGI) with CAKI-1 renal, in the test with CCRF-CEM leukemia, in the test with HCC-2998 colon, with LOX IMVI melanoma, with MALME-3M melanoma and in the test with OVCAR-8 ovarian was > 100 µM in each case. The TGI in the test on SK-MEL-2 melanoma, in the test with SK-OV-3 ovarian, in the test on SNB-75 CNS and in the test on UACC-257 melanoma was > 100 µM each time.
For `Cc1cc2sc(C)[n+](CCCOS(=O)(=O)[O-])c2cc1C`, the TGI with BT-549 breast, with CAKI-1 renal, in the test with DU-145 prostate, with EKVX NSCLC, with HS 578T breast and in the test with LOX IMVI melanoma was > 100 µM throughout. For the same molecule, the TGI in the test on MALME-3M melanoma, in the test on MDA-MB-231 breast, with MDA-MB-435, with MDA-N, in the test with OVCAR-8 ovarian and in the test on PC-3 prostate was > 100 µM throughout. Moreover, the total growth inhibition concentration (TGI) in the test on SK-MEL-2 melanoma, in the test with SK-OV-3 ovarian, with SNB-75 CNS, in the test with SR leukemia, with T-47D breast and in the test on UACC-257 melanoma was > 100 µM throughout.
Turning to `C/C(=N\NC(=S)N1CCN(C)CC1)c1nc2ncccc2[nH]1`, the TGI in the test with BT-549 breast, in the test on CAKI-1 renal, in the test with CCRF-CEM leukemia, in the test with EKVX NSCLC, in the test on HCC-2998 colon and in the test with HS 578T breast was > 100 µM throughout. Also, the TGI in the test on LOX IMVI melanoma, with MALME-3M melanoma, with MDA-MB-231 breast, with MDA-MB-435, with OVCAR-8 ovarian and in the test with PC-3 prostate was > 100 µM in each case. Besides, the concentration for total growth inhibition (TGI) in the test on SK-OV-3 ovarian, in the test on SNB-75 CNS, in the test with T-47D breast and with UACC-257 melanoma was > 100 µM each time.
`C/C=C(\C)C(=O)OC1C(C)=C2C(C1OC(=O)CCCC)C(C)(OC(C)=O)CC(OC(=O)CCCC)C1(O)C2OC(=O)C1(C)O` (configuration not stated): the TGI in the test with BT-549 breast is > 100 µM; with CAKI-1 renal, > 92.2 µM; in the test on CCRF-CEM leukemia, > 100 µM; in the test on DU-145 prostate, > 100 µM; in the test with EKVX NSCLC it was > 100 µM; in the test on HCC-2998 colon it was > 100 µM. For the same molecule, the concentration for total growth inhibition (TGI) in the test on HS 578T breast was > 100 µM; with LOX IMVI melanoma, 2.08 µM; with MDA-MB-231 breast, 5.87 µM; in the test on MDA-MB-435, > 100 µM; in the test on MDA-N it was > 100 µM; in the test with OVCAR-8 ovarian it was > 100 µM. For the same molecule, the TGI in the test on PC-3 prostate was > 37.5 µM; in the test on SK-MEL-2 melanoma, 3.96 µM; in the test on SK-OV-3 ovarian, > 100 µM; in the test on SNB-75 CNS, 48.6 µM; with SR leukemia, > 81 µM; in the test with T-47D breast, > 100 µM. Moreover, in the test with UACC-257 melanoma, the TGI is > 100 µM.
Take `COC(=O)c1cc2cc3c(c(O)c2c(=O)o1)O[C@@]1(Oc2c(O)c4c(c(O)c2[C@H]1OC1CC(OC)C(O)C(C)O1)C(=O)C=C(OC)C4=O)[C@H](O)C3` (some centres not stated): the TGI with BT-549 breast came to 4.93 µM; with CAKI-1 renal, 3.2 µM; in the test with DU-145 prostate, 7.87 µM; with EKVX NSCLC it was 12.3 µM; in the test on MDA-MB-231 breast it was 5.95 µM; in the test with MDA-MB-435, 7.47 µM. The TGI was > 100 µM with MDA-N; 10.7 µM in the test with OVCAR-8 ovarian; 12.2 µM with PC-3 prostate; 10.5 µM with SK-MEL-2 melanoma; 17 µM in the test with SK-OV-3 ovarian; 4.76 µM in the test on SR leukemia. Further, the TGI with T-47D breast amounted to 7.2 µM; in the test on UACC-257 melanoma, 14.1 µM.
